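How tested: cells in 96-well plates exposed to compound for 48 hours at five concentrations. At the GI50, growth is halved.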 Activity calls are given as the source filed them. No stated cut-off is given here; in the data, active = GI50 up to about 1.1 µM and inactive = higher.
Experiments:
Test in all cases: NCI tumour cell line growth inhibition, 48 h
[1] = system: SNB-19
[2] = system: MDA-N
[3] = system: HCT-15
[4] = system: SF-295
[5] = system: BT-549
[6] = system: SNB-75
[7] = system: KM12
[8] = system: MCF7
[9] = system: 786-0
[10] = system: RXF 393
[11] = system: DU-145
[12] = system: Malme-3M
[13] = system: MDA-MB-435
[14] = system: SF-268
[15] = system: COLO 205
[16] = system: MDA-MB-231
[17] = system: NCI/ADR-RES
[18] = system: OVCAR-5
[19] = system: NCI-H460
[20] = system: HL-60

Structure (SMILES)	GI50 [1]	GI50 [2]	GI50 [3] [µM]	GI50 [4]	GI50 [5]	GI50 [6]	GI50 [7]	GI50 [8]	GI50 [9]	GI50 [10]	GI50 [11]	GI50 [12]	GI50 [13]	GI50 [14]	GI50 [15]	GI50 [16]	GI50 [17]	GI50 [18]	GI50 [19]	GI50 [20]
Cc1csc2c1-n1cccc1C2=O	> 100 µM (inactive)	99.1 µM (inactive)	> 100	> 100 µM (inactive)	> 100 µM (inactive)	> 100 µM (inactive)	> 100 µM (inactive)	> 100 µM (inactive)	> 100 µM (inactive)	98.4 µM (inactive)	> 100 µM (inactive)	> 100 µM (inactive)	67.3 µM (inactive)	> 100 µM (inactive)	> 100 µM (inactive)	> 100 µM (inactive)	> 100 µM (inactive)	> 100 µM (inactive)	> 100 µM (inactive)	–
C/C(=C\c1ccccc1)C(=O)NCc1ccc(C(=O)NCCC(C)C)cc1	36.1 µM (inactive)	> 100 µM (inactive)	> 100	37 µM (inactive)	33.8 µM (inactive)	21.9 µM (inactive)	> 100 µM (inactive)	> 100 µM (inactive)	38.3 µM (inactive)	20.8 µM (inactive)	> 100 µM (inactive)	> 100 µM (inactive)	> 100 µM (inactive)	42.6 µM (inactive)	> 100 µM (inactive)	85.3 µM (inactive)	45.5 µM (inactive)	> 100 µM (inactive)	> 100 µM (inactive)	–
O=C(N/N=C/c1ccc(Cl)cc1)c1ccccc1Nc1ccccc1C(=O)N/N=C/c1ccc(Cl)cc1	> 100 µM (inactive)	> 100 µM (inactive)	> 100	54 µM (inactive)	> 100 µM (inactive)	> 100 µM (inactive)	> 100 µM (inactive)	> 100 µM (inactive)	> 100 µM (inactive)	> 100 µM (inactive)	> 100 µM (inactive)	64.4 µM (inactive)	> 100 µM (inactive)	> 100 µM (inactive)	> 100 µM (inactive)	91.6 µM (inactive)	> 100 µM (inactive)	38.6 µM (inactive)	> 100 µM (inactive)	–
Nc1nc(Cl)cc(Nc2ccc3c(c2)CCC3)n1	> 100 µM (inactive)	> 100 µM (inactive)	35.9	> 100 µM (inactive)	> 100 µM (inactive)	–	36.1 µM (inactive)	> 100 µM (inactive)	52.2 µM (inactive)	–	> 100 µM (inactive)	> 100 µM (inactive)	> 100 µM (inactive)	> 100 µM (inactive)	44.9 µM (inactive)	52 µM (inactive)	28.6 µM (inactive)	> 100 µM (inactive)	55.8 µM (inactive)	37.2 µM (inactive)
Cc1ccc(S(=O)(=O)c2ccsc2NC(=O)C(F)(F)F)cc1	65 µM (inactive)	23.6 µM (inactive)	34.9	37.8 µM (inactive)	40.3 µM (inactive)	24.9 µM (inactive)	31.1 µM (inactive)	44.8 µM (inactive)	37.6 µM (inactive)	–	42.6 µM (inactive)	40.7 µM (inactive)	44.5 µM (inactive)	28.3 µM (inactive)	10.8 µM (inactive)	24.5 µM (inactive)	31.7 µM (inactive)	50.1 µM (inactive)	27.3 µM (inactive)	–
CCC(C)C1(O)OC2CC3(C)OC(=CC3=O)/C(C)=C\C3OC(=O)C1(C)C32 (stereo unspecified)	33.7 µM (inactive)	1.73 µM (inactive)	3.3	20.5 µM (inactive)	3.57 µM (inactive)	37.2 µM (inactive)	10.6 µM (inactive)	9.77 µM (inactive)	16.6 µM (inactive)	–	4.68 µM (inactive)	–	11.9 µM (inactive)	13.9 µM (inactive)	8.93 µM (inactive)	19.1 µM (inactive)	17.2 µM (inactive)	28.3 µM (inactive)	14.2 µM (inactive)	3.12 µM (inactive)
N#Cc1c(C#N)c(SSc2c(C#N)c(C#N)c(N)n2-c2ccccc2)n(-c2ccccc2)c1N	22.4 µM (inactive)	28.8 µM (inactive)	2.77	24.9 µM (inactive)	5.57 µM (inactive)	31.8 µM (inactive)	25.4 µM (inactive)	2.39 µM (inactive)	9.44 µM (inactive)	18.3 µM (inactive)	18.6 µM (inactive)	2 µM (inactive)	14.9 µM (inactive)	27.7 µM (inactive)	1.99 µM (inactive)	40.9 µM (inactive)	33.8 µM (inactive)	36.4 µM (inactive)	30.6 µM (inactive)	–
O=C1c2ccccc2-n2c1nc1ccc(Cl)cc1c2=O	> 100 µM (inactive)	16.6 µM (inactive)	56.1	42.3 µM (inactive)	> 100 µM (inactive)	27.5 µM (inactive)	> 100 µM (inactive)	83.9 µM (inactive)	26.1 µM (inactive)	3.48 µM (inactive)	> 100 µM (inactive)	–	15.6 µM (inactive)	–	> 100 µM (inactive)	62.1 µM (inactive)	> 100 µM (inactive)	> 100 µM (inactive)	> 100 µM (inactive)	–
CC1=CC(=O)/C(=C/NC(=O)NN)C(=O)O1	> 100 µM (inactive)	> 100 µM (inactive)	> 100	> 100 µM (inactive)	> 100 µM (inactive)	45.4 µM (inactive)	> 100 µM (inactive)	> 100 µM (inactive)	> 100 µM (inactive)	> 100 µM (inactive)	> 100 µM (inactive)	–	> 100 µM (inactive)	> 100 µM (inactive)	> 100 µM (inactive)	> 100 µM (inactive)	94.2 µM (inactive)	> 100 µM (inactive)	> 100 µM (inactive)	–
N#Cc1nc(CSCc2ccccc2)oc1N	–	> 100 µM (inactive)	> 100	> 100 µM (inactive)	> 100 µM (inactive)	–	> 100 µM (inactive)	> 100 µM (inactive)	> 100 µM (inactive)	> 100 µM (inactive)	> 100 µM (inactive)	1.35 µM (inactive)	> 100 µM (inactive)	> 100 µM (inactive)	> 100 µM (inactive)	> 100 µM (inactive)	> 100 µM (inactive)	> 100 µM (inactive)	> 100 µM (inactive)	–
COc1nc(N(C)C)nc2c1[n+](C)cn2C [HETEROMINE A]	25.1 µM (inactive)	94.6 µM (inactive)	> 100	38.9 µM (inactive)	28.7 µM (inactive)	> 100 µM (inactive)	27.7 µM (inactive)	–	48.3 µM (inactive)	84.1 µM (inactive)	> 100 µM (inactive)	23.1 µM (inactive)	74.8 µM (inactive)	31.8 µM (inactive)	30.8 µM (inactive)	> 100 µM (inactive)	> 100 µM (inactive)	> 100 µM (inactive)	44.2 µM (inactive)	36.6 µM (inactive)

Reference: ChEMBL document CHEMBL1201862, “PubChem BioAssay data set” (2004)
